Entries after “also recorded” stand apart in the source; their conditions may differ. Read-outs that look alike come from different tables or passages of the source.
What was measured:
[1] = Pharmacokinetics in other specific populations; type: in vivo, human; conditions: based on age, sex, race/ethnicity, body weight, or CYP2C9 genotype
P-gp = P-gp (Homo sapiens, UniProt P08183); assay: In vitro transporter inhibition; type: in vitro ADME; conditions: at clinically relevant concentrations
rat micronucleus = assay: Rat micronucleus assay (in vivo)
Text: (§1) Rimegepant was negative in in vitro (bacterial reverse-mutation, chromosomal aberration in Chinese hamster ovary cells) and in vivo (rat micronucleus) assays.

CYP3A4 [2] = target: T1, CYP3A4 (Homo sapiens, UniProt P08684); assay: Dedicated drug interaction study with itraconazole (strong CYP3A4 inhibitor); type: in vivo; parameters: endogenous in cells; host or cells: in vivo, endogenous enzyme of the study subjects; conditions: 75 mg single dose with itraconazole at steady state
healthy volunteers = assay: Resting blood pressure on concomitant administration with sumatriptan; type: in vivo, human; conditions: with sumatriptan 12 mg subcutaneous vs sumatriptan alone
Text: The relationship between pharmacodynamic activity and the mechanism(s) by which rimegepant exerts its clinical effects is unknown.

Tg.rasH2 mice = assay: Carcinogenesis study, oral, 26 weeks, Tg.rasH2 mice; type: in vivo, mouse; conditions: oral 0, 10, 100, or 300 mg/k/day for 26 weeks
pregnant rabbits = assay: Embryofetal development study, oral administration during organogenesis, rabbits; type: in vivo, rabbit
Procedure: The highest dose tested (50 mg/kg/day) was associated with plasma exposures (AUC) approximately 10 times that in humans at the MRHD.

[3] = test system: Chinese hamster ovary cells; assay: Chromosomal aberration assay (in vitro); type: cell-based
Text: as §1

CYP3A4 and CYP2C9 = assay: Dedicated drug interaction study with fluconazole (combined moderate CYP3A4 and CYP2C9 inhibitor); type: in vivo, human; conditions: 75 mg single dose with fluconazole
[4] = Cardiac electrophysiology (QT interval); type: in vivo, human; conditions: single dose 4 times the recommended dose
CYP3A4 [5] = target: T1, CYP3A4; assay: In vitro enzyme inhibition; type: in vitro ADME
Text: (§2) Rimegepant is a substrate of CYP3A4 and CYP2C9 [see In Vivo Studies].

CYP1A2 = CYP1A2 (Homo sapiens, UniProt P05177); assay: In vitro enzyme inhibition; type: in vitro ADME; conditions: at clinically relevant concentrations
Text: as §2

CYP2C19 = CYP2C19 (Homo sapiens, UniProt P33261); assay: In vitro enzyme inhibition; type: in vitro ADME; conditions: at clinically relevant concentrations
Text: as §2

CYP2B6 = CYP2B6 (Homo sapiens, UniProt P20813); assay: In vitro enzyme inhibition; type: in vitro ADME; conditions: at clinically relevant concentrations
Text: as §2

CYP2C9 [6] = target: T2, CYP2C9 (Homo sapiens, UniProt P11712); assay: In vitro enzyme inhibition; type: in vitro ADME; conditions: at clinically relevant concentrations
Text: as §2

UGT1A1 = UGT1A1 (Homo sapiens, UniProt P22309); assay: In vitro enzyme inhibition; type: in vitro ADME; conditions: at clinically relevant concentrations
Text: as §2

CYP2D6 = CYP2D6 (Homo sapiens, UniProt P10635); assay: In vitro enzyme inhibition; type: in vitro ADME; conditions: at clinically relevant concentrations
Text: as §2

[7] = Dedicated clinical study, pharmacokinetics in renal impairment; type: in vivo, human
Procedure: In a dedicated clinical study comparing the pharmacokinetics of rimegepant in subjects with mild (estimated creatinine clearance [CLcr] 60-89 mL/min), moderate (CLcr 30-59 mL/min), and severe (CLcr 15-29 mL/min) renal impairment to that with normal subjects (healthy matched control), the exposure of rimegepant following single 75 mg dose was approximately 40% higher in subjects with moderate renal impairment. […] NURTEC ODT has not been studied in patients with end-stage renal disease (CLcr<15 mL/min) [see Use in Specific Populations].

CYP3A4 [8] = target: T1, CYP3A4; assay: In vitro enzyme study: substrate / metabolism; type: in vitro ADME
Text: as §2

CYP2C9 [9] = target: T2, CYP2C9; assay: In vitro enzyme study: substrate / metabolism; type: in vitro ADME; conditions: listed as Rimegepant
Text: as §2

[10] = Dedicated clinical study, pharmacokinetics in hepatic impairment; type: in vivo, human
Procedure: In a dedicated clinical study comparing the pharmacokinetics of rimegepant in subjects with mild, moderate, and severe hepatic impairment to that with normal subjects (healthy matched control), the exposure of rimegepant (Cmax and AUC) following a single 75 mg dose was approximately 2-fold higher in subjects with severe impairment (Child-Pugh class C).

OATP1B1 = OATP1B1 (Homo sapiens, UniProt Q9Y6L6); assay: In vitro transporter inhibition; type: in vitro ADME
clinical = conditions: human, in vivo
Procedure: Following oral administration of NURTEC ODT, rimegepant is absorbed with the maximum concentration at 1.5 hours.
(§3) The steady state volume of distribution of rimegepant is 120 L. Plasma protein binding of rimegepant is approximately 96%.
Following oral administration of [^14C]-rimegepant to healthy male subjects, 78% of the total radioactivity was recovered in feces and 24% in urine. Unchanged rimegepant is the major single component in excreted feces (42%) and urine (51%).

[11] = Pharmacokinetic interactions with other drugs (oral contraceptives, midazolam, sumatriptan); type: in vivo, human; conditions: with oral contraceptives (norelgestromin, ethinyl estradiol), midazolam, or sumatriptan
BCRP = BCRP (Homo sapiens, UniProt Q9UNQ0); assay: In vitro transporter inhibition; type: in vitro ADME; conditions: at clinically relevant concentrations
Plasma protein binding = type: in vitro ADME
Text: as §3

T1 sequence (P08684 whole entry): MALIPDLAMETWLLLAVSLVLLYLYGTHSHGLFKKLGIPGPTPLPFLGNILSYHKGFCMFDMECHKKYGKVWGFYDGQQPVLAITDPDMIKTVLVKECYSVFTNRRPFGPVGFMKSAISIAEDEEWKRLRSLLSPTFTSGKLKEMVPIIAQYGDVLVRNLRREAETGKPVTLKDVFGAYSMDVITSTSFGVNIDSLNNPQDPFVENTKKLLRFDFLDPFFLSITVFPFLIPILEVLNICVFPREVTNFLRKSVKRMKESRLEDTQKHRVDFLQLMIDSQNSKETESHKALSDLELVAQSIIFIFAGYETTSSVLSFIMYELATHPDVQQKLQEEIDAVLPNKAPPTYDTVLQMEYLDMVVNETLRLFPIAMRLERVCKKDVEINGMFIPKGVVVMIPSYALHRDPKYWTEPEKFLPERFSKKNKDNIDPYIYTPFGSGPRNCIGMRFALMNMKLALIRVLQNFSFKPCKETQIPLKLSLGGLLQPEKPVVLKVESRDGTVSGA
T2 sequence (P11712 whole entry): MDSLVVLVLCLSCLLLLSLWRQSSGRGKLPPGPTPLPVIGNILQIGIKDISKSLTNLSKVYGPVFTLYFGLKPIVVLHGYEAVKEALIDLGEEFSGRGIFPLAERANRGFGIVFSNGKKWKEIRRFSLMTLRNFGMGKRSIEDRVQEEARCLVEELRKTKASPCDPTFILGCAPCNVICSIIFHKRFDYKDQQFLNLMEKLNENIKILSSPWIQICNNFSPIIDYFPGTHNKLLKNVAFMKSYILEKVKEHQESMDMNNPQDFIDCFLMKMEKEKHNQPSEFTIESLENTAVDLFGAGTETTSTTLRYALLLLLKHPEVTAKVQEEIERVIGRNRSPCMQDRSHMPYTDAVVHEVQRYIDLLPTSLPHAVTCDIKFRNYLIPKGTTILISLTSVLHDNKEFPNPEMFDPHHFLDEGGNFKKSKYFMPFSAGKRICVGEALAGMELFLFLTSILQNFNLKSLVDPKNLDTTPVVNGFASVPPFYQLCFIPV
UGT1A1, sequence (P22309 26-533): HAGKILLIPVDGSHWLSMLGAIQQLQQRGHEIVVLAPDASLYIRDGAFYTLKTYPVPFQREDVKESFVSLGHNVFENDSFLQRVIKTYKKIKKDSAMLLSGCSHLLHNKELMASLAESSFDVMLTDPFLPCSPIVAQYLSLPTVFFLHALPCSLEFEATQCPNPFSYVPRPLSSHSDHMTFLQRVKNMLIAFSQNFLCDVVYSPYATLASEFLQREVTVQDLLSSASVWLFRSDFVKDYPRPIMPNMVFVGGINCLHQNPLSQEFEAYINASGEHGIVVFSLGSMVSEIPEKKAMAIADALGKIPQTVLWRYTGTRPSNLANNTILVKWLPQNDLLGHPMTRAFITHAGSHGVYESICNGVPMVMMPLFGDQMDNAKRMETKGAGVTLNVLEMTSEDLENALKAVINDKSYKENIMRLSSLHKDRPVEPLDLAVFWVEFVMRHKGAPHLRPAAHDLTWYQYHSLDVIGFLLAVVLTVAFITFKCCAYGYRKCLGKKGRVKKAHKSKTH
CYP2D6, sequence (P10635 whole entry): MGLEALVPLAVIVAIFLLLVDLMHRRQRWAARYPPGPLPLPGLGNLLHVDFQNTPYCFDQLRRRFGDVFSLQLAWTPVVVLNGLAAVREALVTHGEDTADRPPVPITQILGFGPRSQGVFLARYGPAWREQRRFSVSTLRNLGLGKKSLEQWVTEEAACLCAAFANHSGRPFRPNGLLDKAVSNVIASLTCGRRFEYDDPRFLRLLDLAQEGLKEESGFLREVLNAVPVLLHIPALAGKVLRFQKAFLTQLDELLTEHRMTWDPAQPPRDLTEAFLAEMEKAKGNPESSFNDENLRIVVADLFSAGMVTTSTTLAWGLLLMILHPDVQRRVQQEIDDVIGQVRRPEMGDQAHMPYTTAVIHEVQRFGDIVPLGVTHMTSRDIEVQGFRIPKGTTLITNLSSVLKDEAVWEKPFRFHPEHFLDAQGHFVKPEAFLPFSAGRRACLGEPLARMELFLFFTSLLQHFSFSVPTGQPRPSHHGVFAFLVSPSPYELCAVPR
OATP1B1, sequence (Q9Y6L6 whole entry): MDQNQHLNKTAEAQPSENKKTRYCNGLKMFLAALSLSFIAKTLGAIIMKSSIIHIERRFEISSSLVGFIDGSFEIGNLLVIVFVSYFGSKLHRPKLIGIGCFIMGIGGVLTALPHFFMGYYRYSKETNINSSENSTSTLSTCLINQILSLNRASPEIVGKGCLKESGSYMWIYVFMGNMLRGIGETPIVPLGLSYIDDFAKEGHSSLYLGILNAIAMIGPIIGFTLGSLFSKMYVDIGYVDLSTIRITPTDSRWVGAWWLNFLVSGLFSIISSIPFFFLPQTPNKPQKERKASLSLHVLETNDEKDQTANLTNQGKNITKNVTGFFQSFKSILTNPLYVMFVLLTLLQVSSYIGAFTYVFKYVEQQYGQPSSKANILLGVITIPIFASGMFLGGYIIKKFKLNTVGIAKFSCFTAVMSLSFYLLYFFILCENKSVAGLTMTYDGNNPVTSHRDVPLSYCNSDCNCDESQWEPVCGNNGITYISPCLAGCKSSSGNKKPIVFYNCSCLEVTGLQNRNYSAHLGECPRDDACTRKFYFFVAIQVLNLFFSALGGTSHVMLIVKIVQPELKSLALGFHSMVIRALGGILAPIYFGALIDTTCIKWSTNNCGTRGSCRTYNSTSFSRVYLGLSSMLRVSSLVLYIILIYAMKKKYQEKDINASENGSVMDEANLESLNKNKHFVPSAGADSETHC
CYP1A2, sequence (P05177 whole entry): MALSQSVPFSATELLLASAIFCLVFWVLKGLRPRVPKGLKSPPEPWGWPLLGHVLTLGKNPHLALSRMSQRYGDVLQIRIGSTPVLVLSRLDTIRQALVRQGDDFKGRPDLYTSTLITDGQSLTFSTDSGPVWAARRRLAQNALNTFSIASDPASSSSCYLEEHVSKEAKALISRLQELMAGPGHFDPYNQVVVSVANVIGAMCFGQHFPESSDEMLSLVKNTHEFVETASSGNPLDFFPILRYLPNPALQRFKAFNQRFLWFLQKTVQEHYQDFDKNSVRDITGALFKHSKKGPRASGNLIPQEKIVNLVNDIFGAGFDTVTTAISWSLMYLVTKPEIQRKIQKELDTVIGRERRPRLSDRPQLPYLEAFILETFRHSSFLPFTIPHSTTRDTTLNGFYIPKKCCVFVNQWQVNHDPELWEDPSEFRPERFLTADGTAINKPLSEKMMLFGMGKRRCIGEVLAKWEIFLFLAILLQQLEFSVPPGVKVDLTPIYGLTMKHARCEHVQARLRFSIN
CYP2B6, sequence (P20813 whole entry): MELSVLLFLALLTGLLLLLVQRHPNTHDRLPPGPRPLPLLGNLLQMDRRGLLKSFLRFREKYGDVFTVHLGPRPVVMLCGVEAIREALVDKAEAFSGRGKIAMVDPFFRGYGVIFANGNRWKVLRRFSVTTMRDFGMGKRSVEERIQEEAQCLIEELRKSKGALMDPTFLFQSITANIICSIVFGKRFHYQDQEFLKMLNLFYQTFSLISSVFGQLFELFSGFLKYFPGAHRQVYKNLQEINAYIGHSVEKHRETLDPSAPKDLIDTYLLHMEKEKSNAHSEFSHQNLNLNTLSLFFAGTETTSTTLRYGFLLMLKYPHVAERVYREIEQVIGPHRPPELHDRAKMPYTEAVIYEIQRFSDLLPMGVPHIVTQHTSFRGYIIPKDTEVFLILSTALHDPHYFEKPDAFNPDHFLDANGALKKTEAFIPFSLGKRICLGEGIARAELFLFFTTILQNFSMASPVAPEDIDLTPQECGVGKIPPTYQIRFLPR
CYP2C19, sequence (P33261 whole entry): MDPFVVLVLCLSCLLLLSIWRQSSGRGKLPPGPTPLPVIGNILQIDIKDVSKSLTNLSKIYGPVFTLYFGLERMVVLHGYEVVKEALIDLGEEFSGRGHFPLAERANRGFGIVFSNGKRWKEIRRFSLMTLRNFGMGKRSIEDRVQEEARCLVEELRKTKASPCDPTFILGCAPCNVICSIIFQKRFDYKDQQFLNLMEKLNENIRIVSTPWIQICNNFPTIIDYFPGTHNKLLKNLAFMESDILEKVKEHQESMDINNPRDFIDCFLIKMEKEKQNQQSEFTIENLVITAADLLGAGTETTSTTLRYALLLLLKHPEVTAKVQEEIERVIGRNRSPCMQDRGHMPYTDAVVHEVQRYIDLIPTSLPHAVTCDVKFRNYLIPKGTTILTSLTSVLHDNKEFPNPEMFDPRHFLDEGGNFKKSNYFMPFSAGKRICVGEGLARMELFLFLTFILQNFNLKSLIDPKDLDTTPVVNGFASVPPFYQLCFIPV
BCRP, sequence (Q9UNQ0 whole entry): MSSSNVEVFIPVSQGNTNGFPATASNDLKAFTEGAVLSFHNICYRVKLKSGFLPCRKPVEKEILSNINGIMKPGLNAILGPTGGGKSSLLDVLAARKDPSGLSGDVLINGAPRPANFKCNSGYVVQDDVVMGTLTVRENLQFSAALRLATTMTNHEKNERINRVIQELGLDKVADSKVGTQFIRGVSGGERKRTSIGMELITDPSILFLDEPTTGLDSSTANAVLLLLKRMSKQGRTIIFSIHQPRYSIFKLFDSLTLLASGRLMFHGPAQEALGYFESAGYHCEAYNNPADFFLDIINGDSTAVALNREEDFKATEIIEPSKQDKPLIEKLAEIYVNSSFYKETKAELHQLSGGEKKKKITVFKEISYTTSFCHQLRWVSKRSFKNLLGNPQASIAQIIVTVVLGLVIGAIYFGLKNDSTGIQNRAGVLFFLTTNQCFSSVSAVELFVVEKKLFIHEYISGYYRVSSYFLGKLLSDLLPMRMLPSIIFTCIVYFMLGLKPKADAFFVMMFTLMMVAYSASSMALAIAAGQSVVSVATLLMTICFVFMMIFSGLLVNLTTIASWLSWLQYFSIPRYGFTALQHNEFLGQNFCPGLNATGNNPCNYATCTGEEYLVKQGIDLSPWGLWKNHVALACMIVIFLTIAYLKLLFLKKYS

N[C@@H]1c2cccnc2[C@H](OC(=O)N2CCC(n3c(=O)[nH]c4ncccc43)CC2)CC[C@H]1c1cccc(F)c1F [rimegepant, (5S,6S,9R)-5-amino-6-(2,3-difluorophenyl)-6,7,8,9-tetrahydro-5H-cyclohepta[b]pyridin-9-yl 4-(2-oxo-2,3-dihydro-1H-imidazo[4,5-b]pyridin-1-yl)-1-piperidinecarboxylate]
differences in pharmacokinetics [1]: No clinically significant differences
inhibition of P-gp (P-gp): not an inhibitor
mutagenesis, rat micronucleus (rat micronucleus): negative
increase of rimegepant AUC (CYP3A4 [2]): 4 fold
increase of rimegepant Cmax (CYP3A4 [2]): ~1.5 fold
resting blood pressure (healthy volunteers): No clinically relevant differences in resting blood pressure
drug-induced tumors (Tg.rasH2 mice): no evidence of drug-induced tumors
effects on embryofetal development (pregnant rabbits; 0, 10, 25, or 50 mg/kg/day oral): no adverse effects on embryofetal development
plasma exposure (AUC) relative to humans at the MRHD (pregnant rabbits; highest dose tested (50 mg/kg/day)): approximately 10 times
mutagenesis, chromosomal aberration [3]: negative
effect on rimegepant Cmax (CYP3A4 and CYP2C9): no relevant effect
increase of rimegepant AUC (CYP3A4 and CYP2C9): 1.8 fold
QT interval prolongation [4]: does not prolong the QT interval to any clinically relevant extent
inhibition of CYP3A4 (CYP3A4 [5]): weak inhibitor of CYP3A4 with time-dependent inhibition
inhibition of CYP1A2 (CYP1A2): not an inhibitor
inhibition of CYP2C19 (CYP2C19): not an inhibitor
inhibition of CYP2B6 (CYP2B6): not an inhibitor
inhibition of CYP2C9 (CYP2C9 [6]): not an inhibitor
inhibition of UGT1A1 (UGT1A1): not an inhibitor
inhibition of CYP2D6 (CYP2D6): not an inhibitor
difference in exposure vs normal renal function ([7]; severe renal impairment (CLcr 15-29 mL/min)): no clinically meaningful difference
exposure higher than in normal subjects ([7]; single 75 mg dose, moderate renal impairment (CLcr 30-59 mL/min)): approximately 40%
substrate of / metabolized by CYP3A4 (CYP3A4 [8]): moderately sensitive substrate
substrate of / metabolized by CYP3A4 (CYP3A4 [8]; listed as Rimegepant): primarily metabolized; also recorded: substrate
substrate of / metabolized by CYP2C9 (CYP2C9 [9]): substrate
difference in exposure vs normal hepatic function ([10]; mild (Child-Pugh class A) and moderate (Child-Pugh class B) hepatic impairment): no clinically meaningful differences
exposure (Cmax and AUC) higher than in normal subjects ([10]; single 75 mg dose, severe hepatic impairment (Child-Pugh class C)): approximately 2 fold
inhibition of OATP1B1 (OATP1B1): weak inhibitor
eliminated in unchanged form (clinical): ~77 % of the dose
half-life (clinical): ~11 h
major metabolites (i.e., >10%) in plasma (clinical): no major metabolites
bioavailability (clinical; po): ~64%
pharmacokinetic interactions [11]: No significant pharmacokinetic interactions
inhibition of BCRP (BCRP): not an inhibitor
fraction unbound (Plasma protein binding): ~0.04
